Structures can show the parent of a compound that is named as a salt.
Key:
kynurenine-3-hydroxylase [1] = target: T1, kynurenine-3-hydroxylase (Rattus norvegicus, UniProt O88867); experiment: Kynurenine-3-hydroxylase assay in the rat liver (mitochondrial extract); format: biochemical; design: Rat liver mitochondrial extract was used as enzymatic preparation for this assay; from tissue; host or cells: rat liver mitochondrial extract; settings: 0.025 mM L-kynurenine, 37° C., 30 min, read-out: Enzyme Inhibition (Liver) IC50
T1 sequence (O88867 whole entry): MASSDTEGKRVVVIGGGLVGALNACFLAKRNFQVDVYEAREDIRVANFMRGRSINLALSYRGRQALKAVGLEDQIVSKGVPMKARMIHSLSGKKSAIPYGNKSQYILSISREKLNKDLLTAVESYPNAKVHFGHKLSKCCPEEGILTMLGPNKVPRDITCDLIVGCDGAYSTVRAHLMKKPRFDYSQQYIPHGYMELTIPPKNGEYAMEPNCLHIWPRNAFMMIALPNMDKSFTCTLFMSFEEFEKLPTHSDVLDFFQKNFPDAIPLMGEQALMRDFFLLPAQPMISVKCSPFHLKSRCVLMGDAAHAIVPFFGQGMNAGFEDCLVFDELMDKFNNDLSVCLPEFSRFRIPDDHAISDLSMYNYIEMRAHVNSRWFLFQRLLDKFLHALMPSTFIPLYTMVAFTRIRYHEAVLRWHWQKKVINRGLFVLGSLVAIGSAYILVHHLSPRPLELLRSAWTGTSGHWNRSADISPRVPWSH
Protocol: Kynurenine-3-hydroxylase Assay in the Rat Liver
The assay for kynurenine 3-hydroxylase was based on the enzymatic synthesis of tritiated water during the hydroxylation reaction. Radiolabeled water was quantified following selective adsorption of the isotopic substrate and its metabolite with activated charcoal.
Rat liver mitochondrial extract was used as enzymatic preparation for this assay.
The assay for kynurenine 3-hydroxylase activity was carried out at 37° C. for a time of 30 min. The reaction mixture of a total volume of […] was constituted of […] of suspended extract, 100 mM Tris/Cl buffer pH 8.1, 10 mM EDTA, 100 mM KCl, 0.8 mM NADPH, 0.025 mM L-kynurenine, […] L-(3,5-^3 H)Kynurenine (10 Ci/mmol) and […] of different concentration of inhibitor solutions. After the incubation the reaction was terminated by the addition of 1 mL of 7.5% (w/v) activated charcoal, vortexed and centrifugated for 7 min.
A […] aliquot of supernatant was counted by scintillation spectroscopy in 5 ml of liquid scintillation.

[2] = Solubility in water at the indicated pH; format: physicochemical
Source text: The following Table 2 reports the solubility in water at the indicated pH of a representative compound of the invention (R,S)-2-amino-4-(3',4'-difluorophenyl)-4-oxo-2-butanoic acid hydrochloride (PNU 156830) in comparison with the known reference compound of WO 95/03271: (R,S)-2-amino-4-(3',4'-dichlorophenyl)-4-oxo-butanoic acid hydrochloride (internal code: PNU 156561).

kynurenine-3-hydroxylase [3] = target: T1, kynurenine-3-hydroxylase; experiment: Kynurenine-3-hydroxylase assay in the rat brain; format: biochemical; design: from tissue; settings: rat brain homogenate, 50 μM L-kynurenine, 60 min; read-out: Enzyme Inhibition (Brain) IC50
Protocol: Kynurenine-3-hydroxylase Assay in the Rat Brain
Brain was homogenized in ice-cold 0.32 M sucrose and centrifuged at 12000×g for 30 min at 4° C. The pellet was washed three times with 0.32 M sucrose by centrifugation and suspended in 0.14 M KCl in 20 mM K-phosphate buffer at pH 7 (1 g tissue in 2 ml buffer). The reaction mixture contained: 75 μl of suspended homogenate; 100 μl of substrate solution containing 50 mM K-phosphate buffer pH 7.5, 2 MM MgCl2, 0.4 mM NADPH, and 50 μM L-kynurenine (final concentration),and 25 μl of different concentrations of inhibitor solutions. The reaction was stopped by addition of 200 μl of 1 M HClO4 after 60 min incubation. L-3-hydroxykynurenine formed was quantified by HPLC with coulometric detection at a working voltage of +0.2 V. The column was a 10 cm C18 reversed phase (3 μm. The mobile phase consisted of 950 ml distilled water, 20 ml acetonitrile, 9 ml triethylamine, 5.9 ml phosphoric acid, 100 mg sodium EDTA and 1.5 g heptanesulfonic acid. The flow rate was 1 ml/min.

Row | Structure (SMILES) | IC50 (kynurenine-3-hydroxylase [1]) | solubility ([2]; pH = 7.4) | solubility ([2]; pH = 8) | IC50 (kynurenine-3-hydroxylase [3]) | solubility ([2]; pH = 3)
1 | N[C@@H](CC(=O)c1ccc(F)c(F)c1)C(=O)O [PNU 158393, (S)-2-amino-4-(3',4'-difluorophenyl)-4-oxo-2-butanoic acid hydrochloride] | 220 nM |  |  |  | 
2 | NC(CC(=O)c1ccc(Cl)c(Cl)c1)C(=O)O (racemic) [PNU 156561, (R,S)-2-amino-4-(3',4'-dichlorophenyl)-4-oxo-butanoic acid hydrochloride, reference compound] |  | 0.2 mg/mL | 15 mg/mL |  | 
3 | NC(CC(=O)c1ccc(F)c(F)c1)C(=O)O (racemic) [PNU 156830, (R,S)-2-amino-4-(3',4'-difluorophenyl)-4-oxo-2-butanoic acid hydrochloride] | 420 nM | 18 mg/mL | 36 mg/mL | 120 nM | 38 mg/mL
4 | N[C@H](CC(=O)c1ccc(F)c(F)c1)C(=O)O [PNU 158392, (R)-2-amino-4-(3',4'-difluorophenyl)-4-oxo-2-butanoic acid hydrochloride] | 10900 nM |  |  |  | 

Source: US5973006A, “Fluoro-substituted benzoylpropionic acid derivatives” (Pharmacia & Upjohn S.p.A., priority 1995, dated 1999)
